# Values joined by “and” are separate entries in the source; they are usually repeats but may differ in a detail not shown here. Equal entries are not always repeated. Where two headings read alike, the source gives them in different places.
# Assays:
# [1] = target: T1, transcriptional switch components containing FKBP and 2098L mutant FRB domains (Homo sapiens, UniProt P42345+P62942); experiment: transcription assay in engineered HD1080 cells expressing SEAP (txn 2098L); assay type: cell-based
# T1 construct: transcriptional switchcomponents containing FKBP and 2098L mutant FRB domains, respectively; fused on or other part: The two switch components are separate chimeric proteins; Neither is given for this cell line
# Source text: The ability of the rapalogs to multimerize chimeric proteins may be measured in cell-based assays by measuring the occurrence of an event triggered by such multimerization. For instance, one may use cells containing and capable of expressing DNA encoding a first chimeric protein comprising one or more FKBP-domains and one or more effector domains as well as DNA encoding a second chimeric protein containing an FRB domain and one or more effector domains capable, upon multimerization, of actuating a biological response. We prefer to use cells which further contain a reporter gene under the transcriptional control of a regulatory element (i.e., promoter) which is responsive to the multimerization of the chimeric proteins. The design and preparation of illustrative components and their use in so engineered cells is described in WO99/36553 and WO96/41865 and the other international patent applications referred to in this and the foregoing section. (See also W099/10510 for additional guidance on the design, assembly and delivery of nucleic acids to render cells and animals responsive to rapalogs of interest and for additional guidance on applications of such systems.) The cells are grown or maintained in culture. A rapalog is added to the culture medium and after a suitable incubation period (to permit gene expression and secretion, e.g. several hours or overnight) the presence of the reporter gene product is measured. Positive results, i.e., multimerization, correlates with transcription of the reporter gene as observed by the appearance of the reporter gene product. The reporter gene product may be a conveniently detectable protein (e.g. by ELISA) or may catalyze the production of a conveniently detectable product (e.g. colored). Materials and methods for producing appropriate cell lines for conducting such assays are disclosed in the international patent applications cited above in this section.
# 2. EC50 values of the various compounds was measured in a transcription assay using genetically engineered HD1080 cells which constitutively express transcriptional switch components containing FKBP and 2098L mutant FRB domains, respectively and which regulatably express secreted alkaline phosphatase (SEAP) in the presence of a compound which multimerizes the switch components. The assay is a literature assay. See WO 99/36553, e.g. Example 12, pages 120–121 (& FIG. 2D) […]
# murine splenocyte = murine splenocyte assay for immunosuppressive activity; assay type: cell-based; settings: for immunosuppressive activity compared with rapamycin: splenocyte proliferation assay, versus rapamycin
# Procedure: 3. Conventional murine splenocyte assay for immunosuppressive activity.
# (§1) A diverse group of C7-modified 28-epirapalogs were prepared as described in Example 4.
# FKBP = FKBP (Homo sapiens, UniProt P62942); experiment: FKBP competitive binding assay based on fluorescence polarization (FP); settings: for IC50: competitive FP binding, methods of Example 2.5
# Procedure: A Competitive Binding FP Assay is described in detail in WO99/36553 and WO96/41865. That assay permits the in vitro measurement of an IC50 value for a given compound which reflects its ability to bind to an FKBP-protein in competition with a labeled FKBP ligand, such as, for example, FK506.
# as §1
# [2] = cellular transcription assay, methods of Example 2.5; read-out: TXN 2098L EC50
# [3] = mouse splenocyte assay, methods of Example 2.5, read-out: Splenocyte IC50
# [4] = Mus musculus, Splenocyte, mouse splenocyte assay, methods of Example 2.5, read-out: Splenocyte IC50
# [5] = read-out: TXN 2098L EC50; cellular transcription assay, methods of Example 2.5
# [6] = Mus musculus, Splenocyte, murine splenocyte assay, immunosuppressive activity, read-out: Splenocyte IC50
# T1 sequence (P62942 2-108 limits assumed, stated change not applied, other chains not shown): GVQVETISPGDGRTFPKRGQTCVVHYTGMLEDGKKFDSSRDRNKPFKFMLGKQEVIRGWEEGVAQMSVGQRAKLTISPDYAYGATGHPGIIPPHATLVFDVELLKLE
# Sequence of FKBP (P62942 whole entry): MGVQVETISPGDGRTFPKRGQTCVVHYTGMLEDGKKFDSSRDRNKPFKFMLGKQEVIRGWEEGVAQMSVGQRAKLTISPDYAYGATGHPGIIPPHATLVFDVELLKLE
IC50 (murine splenocyte; [4]) [nM],Compound,"EC50 [1, 2] [nM]",IC50 (FKBP; read-out: FKBP IC50),further results
,CO[C@@H]1C[C@H](C[C@@H](C)[C@@H]2CC(=O)[C@H](C)/C=C(\C)[C@H](O)[C@@H](OC)C(=O)[C@H](C)C[C@H](C)/C=C/C=C/C=C(\C)[C@H](N(C)S(=O)(=O)N(C)C)C[C@@H]3CC[C@@H](C)[C@@](O)(O3)C(=O)C(=O)N3CCCC[C@H]3C(=O)O2)CC[C@H]1O [28-epi-7R-N-Me-dimethylsulfamide],8,,IC50 (murine splenocyte; [3]): 653 nM
2630,"CCCS(=O)(=O)N(C)C1CC2CCC(C)C(O)(O2)C(=O)C(=O)N2CCCCC2C(=O)OC(C(C)CC2CCC(O)C(OC)C2)CC(=O)C(C)C=C(C)C(O)C(OC)C(=O)C(C)CC(C)C=CC=CC=C1C (single isomer, unassigned) [28-epi-7S-N-Me-propanesulfonamide]",35,19 nM,TXN 2098L peak relative to rapamycin peak ([1]; superscript mark on EC50 cell): (+) (peak was >125% rapamycin peak)
166,CO[C@@H]1C[C@H](C[C@@H](C)[C@@H]2CC(=O)[C@H](C)/C=C(\C)[C@H](O)[C@@H](OC)C(=O)[C@H](C)C[C@H](C)/C=C/C=C/C=C(\C)[C@H](N(C)S(C)(=O)=O)C[C@@H]3CC[C@@H](C)[C@@](O)(O3)C(=O)C(=O)N3CCCC[C@H]3C(=O)O2)CC[C@H]1O [28-epi-7R-N-Me-methanesulfonamide],8,37 nM,
152,CCCCS(=O)(=O)N[C@H]1C[C@@H]2CC[C@@H](C)[C@@](O)(O2)C(=O)C(=O)N2CCCC[C@H]2C(=O)O[C@H]([C@H](C)C[C@@H]2CC[C@@H](O)[C@H](OC)C2)CC(=O)[C@H](C)/C=C(\C)[C@H](O)[C@@H](OC)C(=O)[C@H](C)C[C@H](C)/C=C/C=C/C=C/1C [28-epi-7S-butanesulfonamide],11,9.2 nM,TXN 2098L peak relative to rapamycin peak ([1]; superscript mark on EC50 cell): (+) (peak was >125% rapamycin peak)
,COC1CC(CC(C)C2CC(=O)C(C)C=C(C)C(O)C(OC)C(=O)C(C)CC(C)C=CC=CC=C(C)C(SC(C)C)CC3CCC(C)C(O)(O3)C(=O)C(=O)N3CCCCC3C(=O)O2)CCC1O (stereo not drawn) [28-epi-7S-isopropylthioether],,15 nM and 21 nM,TXN 2098L peak relative to rapamycin peak ([1]; superscript mark on EC50 cell): (+) (peak was >125% rapamycin peak)
,CO[C@@H]1C[C@H](C[C@@H](C)[C@@H]2CC(=O)[C@H](C)/C=C(\C)[C@H](O)[C@@H](OC)C(=O)[C@H](C)C[C@H](C)/C=C/C=C/C=C(\C)[C@@H](Oc3ccccc3C)C[C@@H]3CC[C@@H](C)[C@@](O)(O3)C(=O)C(=O)N3CCCC[C@H]3C(=O)O2)CC[C@H]1O [28-epi-7S-2′-methylphenyloxy],,,"IC50 (FKBP; FKBP IC50 (nM)): 17 nM; EC50 [1, 5]: 14 nM"
,CO[C@@H]1C[C@H](C[C@@H](C)[C@@H]2CC(=O)[C@H](C)/C=C(\C)[C@H](O)[C@@H](OC)C(=O)[C@H](C)C[C@H](C)/C=C/C=C/C=C(\C)[C@H](N(C)C(=O)Oc3ccc(C)cc3)C[C@@H]3CC[C@@H](C)[C@@](O)(O3)C(=O)C(=O)N3CCCC[C@H]3C(=O)O2)CC[C@H]1O [28-epi-7R-N-Me-p-tolylcarbamate],70,119 nM,IC50 (murine splenocyte; [3]): 393 nM
,CO[C@@H]1C[C@H](C[C@@H](C)[C@@H]2CC(=O)[C@H](C)/C=C(\C)[C@H](O)[C@@H](OC)C(=O)[C@H](C)C[C@H](C)/C=C/C=C/C=C(\C)[C@H](Oc3ccccc3C)C[C@@H]3CC[C@@H](C)[C@@](O)(O3)C(=O)C(=O)N3CCCC[C@H]3C(=O)O2)CC[C@H]1O [28-epi-7R-2′-methylphenyloxy],,,"IC50 (FKBP; FKBP IC50 (nM)): 8.1 nM; EC50 [1, 5]: 8 nM; TXN 2098L peak relative to rapamycin peak ([1]; superscript mark on EC50 cell): (+) (peak was >125% rapamycin peak)"
,CO[C@@H]1C[C@H](C[C@@H](C)[C@@H]2CC(=O)[C@H](C)/C=C(\C)[C@H](O)[C@@H](OC)C(=O)[C@H](C)C[C@H](C)/C=C/C=C/C=C(\C)[C@@H](N(C)C(=O)OCc3ccccc3)C[C@@H]3CC[C@@H](C)[C@@](O)(O3)C(=O)C(=O)N3CCCC[C@H]3C(=O)O2)CC[C@H]1O [28-epi-7S-N-Me-benzylcarbamate],9,40 nM,IC50 (murine splenocyte; [3]): 158 nM
,"COC1CC(CC(C)C2CC(=O)C(C)C=C(C)C(O)C(OC)C(=O)C(C)CC(C)C=CC=CC=C(C)C(OCc3ccccc3)CC3CCC(C)C(O)(O3)C(=O)C(=O)N3CCCCC3C(=O)O2)CCC1O (single isomer, unassigned) [28-epi-7R-benzyloxy]",14,9.1 nM,IC50 (murine splenocyte; [3]): 313 nM
,28-epi-7R-(3′-methyl)-but-4′-enyloxy,35,13 nM,IC50 (murine splenocyte; [3]): 3160 nM
,CO[C@@H]1C[C@H](C[C@@H](C)[C@@H]2CC(=O)[C@H](C)/C=C(\C)[C@H](O)[C@@H](OC)C(=O)[C@H](C)C[C@H](C)/C=C/C=C/C=C(\C)[C@H](N(C)S(=O)(=O)N(C)c3ccccc3)C[C@@H]3CC[C@@H](C)[C@@](O)(O3)C(=O)C(=O)N3CCCC[C@H]3C(=O)O2)CC[C@H]1O [28-epi-7R-N-Me-methylphenylsulfamide],8,74 nM,
,CO[C@@H]1C[C@H](C[C@@H](C)[C@@H]2CC(=O)[C@H](C)/C=C(\C)[C@H](O)[C@@H](OC)C(=O)[C@H](C)C[C@H](C)/C=C/C=C/C=C(\C)[C@@H](N(C)S(=O)(=O)N(C)c3ccccc3)C[C@@H]3CC[C@@H](C)[C@@](O)(O3)C(=O)C(=O)N3CCCC[C@H]3C(=O)O2)CC[C@H]1O [28-epi-7S-N-Me-methylphenylsulfamide],26,,
,CO[C@@H]1C[C@H](C[C@@H](C)[C@@H]2CC(=O)[C@H](C)/C=C(\C)[C@H](O)[C@@H](OC)C(=O)[C@H](C)C[C@H](C)/C=C/C=C/C=C(\C)[C@@H](OC(C)C)C[C@@H]3CC[C@@H](C)[C@@](O)(O3)C(=O)C(=O)N3CCCC[C@H]3C(=O)O2)CC[C@H]1O [28-epi-7S-isopropyloxy],29,49 nM,
0.9 to 3.5,CO[C@H]1C[C@@H]2CC[C@@H](C)[C@@](O)(O2)C(=O)C(=O)N2CCCCC2C(=O)O[C@H]([C@H](C)C[C@@H]2CC[C@@H](O)[C@H](OC)C2)CC(=O)[C@H](C)/C=C(\C)[C@H](O)[C@@H](OC)C(=O)[C@H](C)C[C@H](C)/C=C/C=C/C=C/1C (stereo partly drawn) [28-epirapamycin],,,"affinity towards FKBP, times weaker than that of rapamycin (FKBP; fluorescence polarization competition assay, versus rapamycin): about 5 times; IC50 (murine splenocyte; [6]): 0.9 to 3.5 nM; immunosuppressive activity compared with rapamycin (murine splenocyte): less potent immunosuppressive activity; immunosuppressive activity compared with rapamycin (murine splenocyte; listed as 2): more than an order of magnitude reduced"
,COC1CC(CC(C)C2CC(=O)C(C)C=C(C)C(O)C(OC)C(=O)C(C)CC(C)C=CC=CC=C(C)C(OCCC3CCCCC3)CC3CCC(C)C(O)(O3)C(=O)C(=O)N3CCCCC3C(=O)O2)CCC1O (stereo not drawn) [28-epi-7S-cyclohexylethyloxy],76,,
,CCOC1CC2CCC(C)C(O)(O2)C(=O)C(=O)N2CCCCC2C(=O)OC(C(C)CC2CCC(O)C(OC)C2)CC(=O)C(C)C=C(C)C(O)C(OC)C(=O)C(C)CC(C)C=CC=CC=C1C (stereo not drawn) [28-epi-7S-ethoxy],15,,"IC50 (murine splenocyte; Mus musculus, Splenocyte, read-out: Splenocyte IC50 (nM)): 801 nM"
,CCOC1CC2CCC(C)C(O)(O2)C(=O)C(=O)N2CCCCC2C(=O)OC(C(C)CC2CCC(O)C(OC)C2)CC(=O)C(C)C=C(C)C(O)C(OC)C(=O)C(C)CC(C)C=CC=CC=C1C (stereo not drawn) [28-epi-7R-ethoxy],33,,
0.1 to 0.3,"CO[C@H]1C[C@@H]2CC[C@@H](C)[C@@](O)(O2)C(=O)C(=O)N2CCCCC2C(=O)O[C@H]([C@H](C)C[C@@H]2CC[C@@H](O)[C@H](OC)C2)CC(=O)[C@H](C)/C=C(\C)[C@@H](O)[C@@H](OC)C(=O)[C@H](C)C[C@H](C)/C=C/C=C/C=C/1C (stereo partly drawn) [rapamycin, reference compound]",,,IC50 (murine splenocyte; [6]): 0.1 to 0.3 nM

Compound,IC50 (murine splenocyte; [4]) [nM],"EC50 [1, 2] [nM]",IC50 (FKBP; read-out: FKBP IC50),further results
CO[C@@H]1C[C@H](C[C@@H](C)[C@@H]2CC(=O)[C@H](C)/C=C(\C)[C@H](O)[C@@H](OC)C(=O)[C@H](C)C[C@H](C)/C=C/C=C/C=C(\C)[C@H](N(C)S(=O)(=O)c3ccc(C)cc3)C[C@@H]3CC[C@@H](C)[C@@](O)(O3)C(=O)C(=O)N3CCCC[C@H]3C(=O)O2)CC[C@H]1O [28-epi-7R-N-Me-p-toluenesulfonamide],12,,,"IC50 (FKBP; FKBP IC50 (nM)): 34 nM; EC50 [1, 5]: 8 nM"

# Reference: patent US7196192B2, “28-epirapalogs” (Ariad Gene Therapeutics, Inc., priority 1999, dated 2007)
